Patent US10064848B2, “Pyridic ketone derivatives, method of preparing same, and pharmaceutical application thereof” (Shanghai Hengrui Pharmaceutical Co., Ltd., priority 2013, dated 2018)
pIC50: −log10 of the molar value.

Tests used:
[1] = target: T1, MEK1 (Recombinant Human Protein) (Homo sapiens, UniProt Q02750); test: MEK1 kinase inhibition assay (Z'-LYTE Kinase Assay Kit-Ser/Thr 03 Peptide); assay type: biochemical; settings: 4 hours at 37° C, read-out: IC50 for inhibiting MEK kinase (MEK1)
T1 construct: purchased Invitrogen PV3093
T1 sequence (Q02750 whole entry): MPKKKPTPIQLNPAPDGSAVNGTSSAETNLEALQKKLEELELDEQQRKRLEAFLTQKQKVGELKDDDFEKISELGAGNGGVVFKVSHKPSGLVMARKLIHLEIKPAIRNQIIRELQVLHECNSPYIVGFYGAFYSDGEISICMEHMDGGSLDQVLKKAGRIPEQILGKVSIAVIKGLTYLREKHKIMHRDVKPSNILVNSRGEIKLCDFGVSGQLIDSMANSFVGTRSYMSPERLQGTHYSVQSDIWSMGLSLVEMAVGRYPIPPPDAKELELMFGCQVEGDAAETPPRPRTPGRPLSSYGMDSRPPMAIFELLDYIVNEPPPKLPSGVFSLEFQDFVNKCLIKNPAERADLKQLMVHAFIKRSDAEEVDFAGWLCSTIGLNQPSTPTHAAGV
Procedure: MEK1 kinase activity was tested in vitro by the following method.
MEK kinase used in the assay: MEK1 (Recombinant Human Protein, Invitrogen, Catalog No. PV3093).
Kit used in the assay: Z′-LYTE™ Kinase Assay Kit-Ser/Thr 03 Peptide (Invitrogen, Catalog No. PV3176).
The following in vitro assay was used to determine the activity of the compounds of the present invention for inhibiting the […] MEK kinase. The test compound was dissolved in dimethyl sulfoxide to the desired concentration. 1× Buffer A (Invitrogen, Catalog No. PV3189) was prepared, ATP was diluted with 1× Buffer A to obtain 400 μM ATP solution, appropriate amounts of Z′-LYTE™ Ser/Thr 03 Peptide (Invitrogen, Catalog No. PV3200), MEK kinase (MEK1) Enzymes and 1× Buffer A were mixed, and appropriate amounts of Z′-LYTE™ Ser/Thr 03 phosphoPeptide substrate (Invitrogen, Catalog No. PV3215) and 1× Buffer A were formulated into a mixture to be tested. The 4% DMSO solution of the test compound was prepared from 1× buffer and DMSO solution of the test compound. 2.5 μL DMSO solution of the test compound was added to a reaction well, and then 1× Buffer A, 2.5 μL of 400 μM ATP solution, 5 μL of enzyme and substrate mixture were added to become a 10 μL of reaction system. The reaction system was incubated for 4 hours at 37° C., and a mixture was prepared according to Reagent A:Buffer B=1:1024. 5 μL of a mixture of Reagent A (Invitrogen, Catalog No. PV3295) and Buffer B (Invitrogen, Catalog No. P3127) was added to a reaction well, the reaction system was incubated for 60 minutes at 25° C. The fluorescence was read by a NovoStar ELISA with excitation wavelength: 400 nm, and emission wavelength: 445 nm and 520 nm.
The activity of the compounds of the present invention: The above assay was used to determine the biochemical activity of the compounds of the present invention for inhibiting MEK kinase (MEK1).

CYP2C9 = target: T2, CYP2C9 (Homo sapiens, UniProt P11712); test: In vitro CYP enzyme inhibition, human liver microsomes; assay type: in vitro ADME; settings: probe Diclofenac, single point method
T2 construct: from tissue; host or cells: human liver microsomes
T2 sequence (P11712 whole entry): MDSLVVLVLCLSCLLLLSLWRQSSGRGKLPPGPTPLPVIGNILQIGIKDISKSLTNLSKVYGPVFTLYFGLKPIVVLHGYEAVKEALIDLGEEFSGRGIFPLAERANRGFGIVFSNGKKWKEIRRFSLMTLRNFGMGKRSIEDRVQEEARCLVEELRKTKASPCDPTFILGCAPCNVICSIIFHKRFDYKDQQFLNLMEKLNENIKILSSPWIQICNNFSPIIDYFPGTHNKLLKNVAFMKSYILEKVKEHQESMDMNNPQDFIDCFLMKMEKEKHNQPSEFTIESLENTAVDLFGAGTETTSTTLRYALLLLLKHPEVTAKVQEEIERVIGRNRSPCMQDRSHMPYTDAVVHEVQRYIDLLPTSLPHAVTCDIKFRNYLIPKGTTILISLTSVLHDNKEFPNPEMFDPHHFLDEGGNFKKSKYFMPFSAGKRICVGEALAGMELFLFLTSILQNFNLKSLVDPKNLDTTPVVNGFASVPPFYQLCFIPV
Procedure: (§1) Human liver microsome incubation system was used to reflect the activity of enzymes based on the amount of metabolites produced. Enzyme inhibition of the test compounds was investigated on CYP1A2, CYP2C9, […], CYP3A4m, CYP3A4t and CYP2C19, and IC50 values (a concentration of the test compound that is required for 50% inhibition of enzyme activity) were measured. […] The appropriate amount of test compound standard sample was weighed, and diluted with DMSO to 50 mM to obtain stock solution I. The stock solution I was diluted with PBS to 100 μM to obtain the reaction liquid which is to be used in incubation. [table] The reaction mixture was prepared: 60 μL [table] The above mixture was preincubated for 5 minutes at 37° C., followed by addition of 40 μL of NADPH (2.5 mM, PBS formulation). The mixture solution was incubated for 20 minutes at 37° C. All incubated samples were set to double samples. 300 μL ice-cold acetonitrile was added to terminate the reaction. The reaction solution was added with 100 μl internal standard, mixed uniformly, and centrifuged for 10 minutes at 3500 rpm. The supernatant was transferred to the LC-MS/MS analysis. The activity of enzymes was reflected by the production amount of metabolites. Using a single point method, the formula was calculated as follows: According to the known literature: IC50>10 μM belongs to weaker inhibition, 1 μM<IC50<10 μM belong to moderate inhibition, IC50<1 μM belong to strong inhibition.

CYP3A4t = target: T3, CYP3A4t (Homo sapiens, UniProt P08684); test: as above; assay type: in vitro ADME; settings: probe Testosterone, single point method
T3 construct: from tissue; host or cells: human liver microsomes
T3 sequence (P08684 whole entry): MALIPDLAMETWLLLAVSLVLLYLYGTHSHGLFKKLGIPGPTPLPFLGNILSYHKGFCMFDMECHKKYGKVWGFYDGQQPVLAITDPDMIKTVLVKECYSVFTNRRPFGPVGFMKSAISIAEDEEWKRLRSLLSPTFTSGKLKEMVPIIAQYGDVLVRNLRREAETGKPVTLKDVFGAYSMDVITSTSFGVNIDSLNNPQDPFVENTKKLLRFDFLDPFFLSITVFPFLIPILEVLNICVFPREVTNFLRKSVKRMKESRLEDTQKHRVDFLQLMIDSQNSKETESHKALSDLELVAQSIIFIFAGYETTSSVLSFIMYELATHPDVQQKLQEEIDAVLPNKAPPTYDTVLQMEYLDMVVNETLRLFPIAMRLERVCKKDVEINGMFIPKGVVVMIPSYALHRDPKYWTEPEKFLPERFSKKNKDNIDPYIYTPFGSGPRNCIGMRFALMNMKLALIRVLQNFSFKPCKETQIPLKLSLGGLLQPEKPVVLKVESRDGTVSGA
Procedure: as §1

CYP1A2 = target: T4, CYP1A2 (Homo sapiens, UniProt P05177); test: as above; assay type: in vitro ADME; settings: probe Phenacetin, single point method
T4 construct: from tissue; host or cells: human liver microsomes
T4 sequence (P05177 1-516): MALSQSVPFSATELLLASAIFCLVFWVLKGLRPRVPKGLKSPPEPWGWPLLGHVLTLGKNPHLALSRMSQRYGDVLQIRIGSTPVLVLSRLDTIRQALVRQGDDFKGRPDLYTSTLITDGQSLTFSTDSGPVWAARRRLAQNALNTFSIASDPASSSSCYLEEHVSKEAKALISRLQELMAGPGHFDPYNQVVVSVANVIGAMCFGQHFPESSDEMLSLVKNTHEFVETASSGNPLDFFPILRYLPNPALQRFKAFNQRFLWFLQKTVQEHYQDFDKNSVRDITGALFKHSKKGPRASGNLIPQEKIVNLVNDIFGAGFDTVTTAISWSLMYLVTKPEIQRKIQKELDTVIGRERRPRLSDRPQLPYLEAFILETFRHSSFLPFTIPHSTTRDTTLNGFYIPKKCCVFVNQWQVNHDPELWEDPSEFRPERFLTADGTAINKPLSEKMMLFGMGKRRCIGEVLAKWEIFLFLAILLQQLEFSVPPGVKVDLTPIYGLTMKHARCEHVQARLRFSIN
Procedure: as §1

CYP3A4m = target: T5, CYP3A4m (Homo sapiens, UniProt P08684); test: as above; assay type: in vitro ADME; settings: probe Midazolam, single point method
T5 construct: from tissue; host or cells: human liver microsomes
T5 sequence (P08684 whole entry): as the sequence (P08684 whole entry) above
Procedure: as §1

CYP2C6 = CYP2C6 (Homo sapiens, UniProt P10635); test: as above; assay type: in vitro ADME; settings: single point method
Sequence of CYP2C6 (P10635 whole entry): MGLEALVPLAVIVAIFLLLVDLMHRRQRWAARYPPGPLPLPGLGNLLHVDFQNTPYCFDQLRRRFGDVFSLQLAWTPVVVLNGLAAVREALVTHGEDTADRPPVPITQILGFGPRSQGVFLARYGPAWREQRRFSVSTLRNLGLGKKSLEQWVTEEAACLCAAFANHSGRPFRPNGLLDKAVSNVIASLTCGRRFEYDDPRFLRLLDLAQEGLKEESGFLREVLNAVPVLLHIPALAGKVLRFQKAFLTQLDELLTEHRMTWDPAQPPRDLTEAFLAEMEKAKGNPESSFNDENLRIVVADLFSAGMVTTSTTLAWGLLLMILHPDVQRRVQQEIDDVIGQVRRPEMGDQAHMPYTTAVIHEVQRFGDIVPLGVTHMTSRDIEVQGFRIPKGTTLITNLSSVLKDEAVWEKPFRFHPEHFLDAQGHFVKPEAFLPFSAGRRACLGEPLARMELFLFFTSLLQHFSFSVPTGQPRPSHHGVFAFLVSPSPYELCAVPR
Procedure: as §1

CYP2C19 = target: T6, CYP2C19 (Homo sapiens, UniProt P33261); test: as above; assay type: in vitro ADME; settings: probe (S)-Mephenytoin, single point method
T6 construct: from tissue; host or cells: human liver microsomes
T6 sequence (P33261 whole entry): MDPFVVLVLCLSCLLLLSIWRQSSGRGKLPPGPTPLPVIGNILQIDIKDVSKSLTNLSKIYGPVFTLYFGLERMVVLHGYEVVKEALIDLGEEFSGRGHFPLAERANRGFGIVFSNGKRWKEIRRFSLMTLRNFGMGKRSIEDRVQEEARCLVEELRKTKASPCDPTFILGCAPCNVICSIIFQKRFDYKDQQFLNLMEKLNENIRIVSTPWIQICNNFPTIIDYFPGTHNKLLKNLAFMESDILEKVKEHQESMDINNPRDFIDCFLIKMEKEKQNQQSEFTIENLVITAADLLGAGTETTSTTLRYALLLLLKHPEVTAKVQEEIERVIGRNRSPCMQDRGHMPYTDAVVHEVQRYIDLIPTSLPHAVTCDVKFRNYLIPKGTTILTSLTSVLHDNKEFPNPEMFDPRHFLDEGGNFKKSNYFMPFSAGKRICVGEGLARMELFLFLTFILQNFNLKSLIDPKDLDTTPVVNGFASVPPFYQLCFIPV
Procedure: as §1

Colo205 cell = test: Proliferation inhibition on Colo205 (CCK8); assay type: cell-based; settings: Homo sapiens, COLO 205, Colo205, 72 hours
Text: Cell line used in the assay: Colo205 (Cell Bank of the Chinese Academy of Sciences, Catalog No. TCHu102).
The following in vitro cell assay is to determine the activity of the compounds of the present invention for inhibiting the proliferation of human colon cancer cell, and the activity is expressed as IC50. General programs of this kind of assay were as follows: First, the cell line to be tested (purchased from Cell Bank of the Chinese Academy of Sciences) was inoculated in a 96-well culture plate with a suitable cell concentration of 4000 cells/mL medium, and was cultured in a carbon dioxide incubator at 37° C., then grown overnight. The medium was replaced by new medium added with a series of concentrations (10000 nM, 1000 nM, 100 nM, 10 nM, 1 nM, 0.1 nM) of the test compound solutions. The plates were placed back in the incubator, and continuously cultured for 72 hours. After 72 hours, CCK8 (Cell Counting Kit-8, Catalog No.: CK04, purchased from colleagues chemical company) method was used to determine the proliferation inhibition activity of the test compounds. IC50 values were calculated from the inhibition data of the test compounds at a series of different concentrations.
The above assay was used to determine the biochemical activity of the compounds of the present invention.

| SMILES | pIC50 [1] | pIC50 (CYP2C9) | pIC50 (CYP3A4t) | pIC50 (CYP1A2) | pIC50 (CYP3A4m) | pIC50 (CYP2C6) | pIC50 (CYP2C19) | pIC50 (Colo205 cell) |
| --- | --- | --- | --- | --- | --- | --- | --- | --- |
| Cc1cncc(Oc2cc(=O)n(C)c(Nc3ccc(I)cc3F)c2C(N)=O)c1 [Example 30, 2-((2-fluoro-4-iodophenyl)amino)-1-methyl-4-((5-methylpyridin-3-yl)oxy)-6-oxo-1,6-dihydropyridine-3-carboxamide] | 8.22 | < 5.00 | < 5.00 | < 5.00 | < 5.00 | < 5.00 | < 5.00 | – |
| CC(=O)Nc1cccc(Oc2cc(=O)n(C)c(Nc3ccc(I)cc3F)c2C(N)=O)c1C [Example 4, 4-(3-acetamido-2-methylphenoxy)-2-((2-fluoro-4-iodophenyl)amino)-1-methyl-6-oxo-1,6-dihydropyridine-3-carboxamide] | 8.40 | < 4.30 | < 4.30 | < 5.00 | < 4.30 | < 4.30 | < 5.00 | 9.10 |
| CCS(=O)(=O)Nc1cccc(Oc2cc(=O)n(C)c(Nc3ccc(I)cc3F)c2C(=O)NC)c1C [Example 2, N,1-dimethyl-4-(3-(ethylsulfonamido)-2-methylphenoxy)-2-((2-fluoro-4-iodophenyl)amino)-6-oxo-1,6-dihydropyridine-3-carboxamide] | 7.72 | – | – | – | – | – | – | 8.33 |
| Cc1ccc(F)cc1Oc1cc(=O)n(C)c(Nc2ccc(I)cc2F)c1C(N)=O [Example 25, 4-(5-fluoro-2-methylphenoxy)-2-((2-fluoro-4-iodophenyl)amino)-1-methyl-6-oxo-1,6-dihydropyridine-3-carboxamide] | 8.23 | – | – | – | – | – | – | 9.00 |
